Source: PMC11585924, “Direct measurements of neurosteroid binding to specific sites on GABAA receptors” (British journal of pharmacology, 2024)
Entries after “also recorded” stand apart in the source; their conditions may differ.

Legend:
ELIC-α1GABAAR [1] = biological target: T1, ELIC-α1GABAAR (Homo sapiens, UniProt P14867); test: KK200 photolabelling competition, middle-down MS; assay type: binding; details: 3 μM KK200, 30 μM competitor
Description: The synthesis of the NS photolabelling reagent KK200 is detailed in previous reports ([W. W. L. Cheng et al., 2018]; [Jiang et al., 2016]). […] The samples were then irradiated in a quartz cuvette for 5 min, using a photoreactor emitting light at >320 nm ([Germann et al., 2021]). Sample preparation for tryptic digestion and analysis by LC–MS was performed as previously described ([Sugasawa et al., 2019]). Peptides were separated on a home-packed PLRP-S (Agilent, Santa Clara, CA, USA) column (10 cm × 75 μm, 300 Å) using a 135-min gradient from 10% to 90% acetonitrile and introduced to an Orbitrap-Elite mass spectrometer (Thermo Fisher Scientific, Waltham, MA, USA; RRID:SCR_020548) at 800 nl·min^−1 with a nanospray source. MS acquisition was set as an MS1 Orbitrap scan (resolution of 60,000) followed by top 20 MS2 Orbitrap scans (resolution of 15,000) using data-dependent acquisition and exclusion of singly charged precursors. Fragmentation was performed using high-energy dissociation with normalized energy of 35%. Analysis of data sets was performed using Xcalibur (Thermo Fisher Scientific, Waltham, MA, USA; RRID: SCR_014593) to manually search for TM1, TM2, TM3 or TM4 tryptic peptides with or without NS photolabelling modifications. Photolabelling efficiency was estimated by generating extracted chromatograms of unlabelled and labelled peptides, determining the area under the curve, and calculating the (area of labelled peptide/(area of unlabelled + area of labelled peptide). MS2 spectra of photolabelled TMD peptides were analysed by manual assignment of fragment ions with and without photolabelling modification.

ELIC-α1^W246LGABAAR [2] = biological target: T2, ELIC-α1^W246LGABAAR (Homo sapiens, UniProt P14867, W273L); test: Inhibition of MQ290 FRET by NS in W246L receptors; assay type: binding; details: 30 μM NS; MQ290 1 μM
T2 sequence (P14867 other isoform, or with tags, fused parts or gaps W273L): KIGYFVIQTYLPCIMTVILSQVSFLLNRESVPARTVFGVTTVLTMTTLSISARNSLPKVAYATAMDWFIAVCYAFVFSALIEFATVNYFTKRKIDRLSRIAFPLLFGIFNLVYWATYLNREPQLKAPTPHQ
T2 sequence (P0C7B7 1-198, further chain): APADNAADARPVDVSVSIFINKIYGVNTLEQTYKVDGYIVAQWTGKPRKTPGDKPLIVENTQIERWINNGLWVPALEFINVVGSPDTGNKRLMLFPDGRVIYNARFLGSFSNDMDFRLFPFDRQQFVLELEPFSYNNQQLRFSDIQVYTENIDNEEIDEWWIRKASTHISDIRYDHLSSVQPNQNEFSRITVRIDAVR
Description: (§1) One hundred microlitres of ELIC-α1GABAAR (0.3 μM) was transferred into a 50-μl window quartz cuvette maintained at 4°C, and NaI was added to the protein sample to a final concentration of 100 mM and incubated for 10 min. MQ290 was then added at a concentration of 3 μM for 3α-OH NS inhibition curves or 1 μM for 3β-OH NS inhibition curves and incubated for 30 min. One-microlitre aliquots of 3α-OH and 3β-OH NS from their corresponding stock solutions (prepared in Buffer A + 0.015% DDM) were added to achieve concentrations between 0.01 and 30 μM. The background emission spectra of ligands alone were obtained for each ligand concentration in the absence of protein and were subtracted from the protein-ligand emission spectra to yield background subtracted data. The MQ290 FRET spectra for different ligand concentrations were estimated using the method described above. The 370-nm intensities of the FRET spectra were plotted against ligand concentration and fitted to a four-parameter logistic curve to obtain IC50 data (GraphPad Software version 9.4.0, San Diego, CA). Ki values were calculated using the relationship: Ki=IC50/1+LT/Kd

ELIC-α1GABAAR [3] = biological target: T1, ELIC-α1GABAAR; assay type: binding
Description: as §1
where LT is the concentration of MQ290 and Kd was determined from the MQ290 binding curve.

α1β3 GABAA receptors = biological target: α1β3 GABAA receptors; set-up: method as in Tateiwa et al., 2023; details: ref Tateiwa et al., 2023; read-out: apparent Kd; cited from earlier work
ELIC-α1^W246LGABAAR [4] = biological target: T2, ELIC-α1^W246LGABAAR; test: biochemical; assay type: binding
Description: ELIC-α1GABAAR was expressed and purified according to a previously published protocol ([Q. Chen et al., 2018]). The purified protein was aliquoted and stored at −80°C. Mutagenesis was performed as described in previous reports ([Kinde et al., 2016]) by oligonucleotide-directed mutagenesis using Phu polymerase (Thermo Fisher Scientific, Waltham, MA, USA) verified by sequencing. ELIC-α1GABAAR was expressed in OverExpress™ C43(D3) E. coli, derived from Rosetta™(DE3) cells under double selection with kanamycin and chloramphenicol for ELIC-α1GABAAR.
One hundred microlitres of purified ELIC-α1GABAAR (0.3 μM in Buffer A + 0.015% DDM) was transferred into a 50-μl window quartz cuvette (Starna Cells, Atascadero, CA, USA), which was placed in a cuvette holder maintained at 4°C. […] Two microlitres of NaI (AK Scientific, Union City, CA, USA; 5-M stock prepared in 0.1-Mm sodium hydrosulfite [Sigma-Aldrich, St. Louis, MO, USA]) was added to the protein (final concentration = 100 mM) and incubated for 10 min to reduce the fluorescence emission from hydrophilic tryptophans. To measure the concentration–dependent effects of NS on tryptophan fluorescence, 1 μl of NS from each 100× stock solution was sequentially added to the NaI-equilibrated protein and thoroughly mixed to achieve concentrations from 0.01 to 50 μM. […]

T1 sequence (P14867 other isoform, or with tags, fused parts or gaps): as the sequence (P14867 other isoform, or with tags, fused parts or gaps W273L) above, with L25W counted along it
T1 sequence (P0C7B7 1-198, further chain): as the sequence (P0C7B7 1-198, further chain) above

## CC(=O)[C@H]1CC[C@H]2[C@@H]3CC[C@H]4C[C@H](O)CC[C@]4(C)[C@H]3CC[C@]12C [AlloP, allopregnanolone]
ELIC-α1GABAAR [1]
  prevention of KK200 photolabelling of TM3 (Y309): significantly different than control; also recorded: prevented
ELIC-α1^W246LGABAAR [2]
  inhibition of remaining MQ290 FRET signal in W246L: reduced by neither
ELIC-α1GABAAR [3]; 3α-OH NS, MQ290 3 μM
  Hill slope: −1.89 ± 0.26
ELIC-α1GABAAR [3]; MQ290 binding curves with 3×Kd and 30 μM NS
  mechanism of inhibition of MQ290 binding: competitive interaction
α1β3 GABAA receptors
  Kd: 100 ± 50 nM
ELIC-α1^W246LGABAAR [4]
  IC50: 500 ± 210 nM
